In patent publication US8557840B2, “Herbicidal compounds” (Syngenta Limited, priority 2008, dated 2013):

Assays:
Assay type in all cases: in vivo
Stellaria media = experiment: Herbicidal action, post-emergence, seed trays in climatic chamber (Example B1); details: 1000 g/ha, evaluated after 9 days, 10=total damage to plant, 0=no damage to plant
Method: (§1) Seeds of a variety of test species were sown in sterilised standard soil in seed trays each having 96 cells. […] The plants were grown in the climatic chamber after application at (24/19° C., day/night; 13 hours light; 50-60% humidity) and watered twice daily. After 9 days until the test was evaluated (10=total damage to plant, 0=no damage to plant)

Nasturtium officinale = experiment: as above; details: 1000 g/ha, evaluated after 9 days, 10=total damage to plant, 0=no damage to plant
Method: as §1

Solanum nigrum [1] = experiment: as above; details: 1000 g/ha, evaluated after 9 days, 10=total damage to plant, 0=no damage to plant
Method: as §1

Amaranthus retroflexus [2] = experiment: as above; details: 1000 g/ha, evaluated after 9 days, 10=total damage to plant, 0=no damage to plant
Method: as §1

test plants = experiment: Herbicidal action, post-emergence (Example B1), all test plants, result in words; details: same protocol as Example B1, post-emergence
Method: as §1

Echinochloa crus-galli = experiment: Herbicidal action, post-emergence, pots in glasshouse (Example B2); details: 1000 g/ha, evaluated after 13 days, 10=total damage to plant, 0=no damage to plant
Method: (§2) Seeds of a variety of test species were sown in standard soil in pots. After 8 days cultivation (post-emergence) under controlled conditions in a glasshouse (at 24/16° C., day/night; 14 hours light; 65% humidity), the plants were sprayed with an aqueous spray solution derived from the formulation of the technical active ingredient in acetone/water (50:50) solution containing 0.5% Tween 20 (polyoxyethelyene sorbitan monolaurate, CAS RN 9005-64-5). The test plants were then grown in a glasshouse under controlled conditions in a glasshouse (at 24/16° C., day/night; 14 hours light; 65% humidity) and watered twice daily. After 13 days, the test was evaluated (10=total damage to plant; 0=no damage to plant).

Setaria faberi = experiment: as above; details: 1000 g/ha, evaluated after 13 days, 10=total damage to plant, 0=no damage to plant
Method: as §2

Ipomea hederaceae = experiment: as above; details: 1000 g/ha, evaluated after 13 days, 10=total damage to plant, 0=no damage to plant
Method: as §2

Solanum nigrum [3] = experiment: as above; details: 1000 g/ha, evaluated after 13 days, 10=total damage to plant, 0=no damage to plant
Method: as §2

Amaranthus retroflexus [4] = experiment: as above; details: 1000 g/ha, evaluated after 13 days, 10=total damage to plant, 0=no damage to plant
Method: as §2

SMILES	damage to the test plants (test plants)	ECHCG damage to plant (Echinochloa crus-galli)	SETFA damage to plant (Setaria faberi)	IPOHE damage to plant (Ipomea hederaceae)	SOLNI damage to plant (Solanum nigrum [3])	AMARE damage to plant (Amaranthus retroflexus [4])	further results
O=c1[nH]c2cccnc2c(O)c1-c1ccc(Cl)cc1Cl [A1]							STEME damage to plant (Stellaria media): 0; NAAOF damage to plant (Nasturtium officinale): 2; SOLNI damage to plant (Solanum nigrum [1]): 0; AMARE damage to plant (Amaranthus retroflexus [2]): 0
O=c1[nH]c2cccnc2c(O)c1-c1ccccc1OC(F)(F)F [A2]							STEME damage to plant (Stellaria media): 3; NAAOF damage to plant (Nasturtium officinale): 0; SOLNI damage to plant (Solanum nigrum [1]): 0; AMARE damage to plant (Amaranthus retroflexus [2]): 0
O=c1[nH]c2cccnc2c(O)c1-c1ccccn1 [A8]	little or no damage						
O=c1[nH]c2cccnc2c(O)c1-c1c(F)cc(F)cc1F [A9]	little or no damage						
O=c1[nH]c2ccncc2c(O)c1-c1c(F)ccc(F)c1Cl [B2]	little or no damage						
CC(C)(C)C(=O)Oc1c(-c2c(F)ccc(F)c2Cl)c(=O)[nH]c2ccncc12 [B3]	little or no damage						
Cc1cc2c(c(Cl)n1)c(O)c(-c1c(F)ccc(F)c1Cl)c(=O)n2C [B4]		0	0	2	2	0	
Cn1c(=O)c(-c2c(F)ccc(F)c2Cl)c(O)c2ccncc21 [C1]		0	0	2	0	0	
CC(C)C(=O)Oc1c(-c2c(F)ccc(F)c2Cl)c(=O)n(C)c2cnccc12 [C2]		0	0	5	2	3	
O=c1[nH]c2cnccc2c(O)c1-c1c(F)cc(F)cc1F [C3]	little or no damage						
O=c1[nH]c2ncccc2c(O)c1-c1ccc(Cl)cc1Cl [D1, 3-(2,4-dichloro-phenyl)-4-hydroxy-1H-[1,8]naphthyridin-2-one]	little or no damage						
O=c1[nH]c2ncccc2c(O)c1-c1c(Cl)cccc1Cl [D2]	little or no damage						
O=c1[nH]c2ncccc2c(O)c1-c1ccccc1OC(F)(F)F [D3]	little or no damage						
O=c1[nH]c2ncccc2c(O)c1-c1c(F)ccc(F)c1Cl [D4]	little or no damage						
CC(C)(C)C(=O)Oc1c(-c2c(F)ccc(F)c2Cl)c(=O)n(CC(F)F)c2ncccc12 [D10, 2,2-dimethyl-propionic acid 3-(2-chloro-3,6-difluoro-phenyl)-1-(2,2-difluoro-ethyl)-2-oxo-1,2-dihydro-[1,8]naphthyridin-4-yl ester]		0	0	6	7	7	
O=c1[nH]c2ncccc2c(O)c1-c1cccnc1 [D11, 4-Hydroxy-3-pyridin-3-yl-1H-[1,8]naphthyridin-2-one]	little or no damage						
O=c1[nH]c2ncccc2c(O)c1-c1ccccn1 [D12]	little or no damage						
O=c1[nH]c2nc(Cl)ccc2c(O)c1-c1c(F)ccc(F)c1Cl [D14]		4	0	0	0	4	
CC(C)(C)C(=O)Oc1c(-c2c(F)ccc(F)c2Cl)c(=O)[nH]c2nc(Cl)ccc12 [D15]	little or no damage						
Cn1c(=O)c(-c2c(F)ccc(F)c2Cl)c(OC(=O)C(C)(C)C)c2ccc(Cl)nc21 [D16]		0	0	2	2	2	
O=c1c(-c2c(F)ccc(F)c2Cl)c(O)c2ccc(Cl)nc2n1CC(F)F [D17]		0	0	5	6	6	
Cc1cc(Cl)c2c(O)c(-c3c(F)ccc(F)c3Cl)c(=O)n(C)c2n1 [D18]		0	2	0	3	2	
O=c1c(-c2c(F)ccc(F)c2Cl)c(O)c2cccnc2n1CC(F)F [D21, 3-(2-chloro-3,6-difluoro-phenyl)-1-(2,2-difluoro-ethyl)-4-hydroxy-1H-[1,8]naphthyridin-2-one]		2	1	9	10	10	

SMILES	damage to the test plants (test plants)	ECHCG damage to plant (Echinochloa crus-galli)	SETFA damage to plant (Setaria faberi)	IPOHE damage to plant (Ipomea hederaceae)	SOLNI damage to plant (Solanum nigrum [3])	AMARE damage to plant (Amaranthus retroflexus [4])	further results
Cn1c(=O)c(-c2c(F)ccc(F)c2Cl)c(O)c2ccc(Cl)nc21 [D22]		1	0	6	4	2	
CC(C)C(=O)Oc1c(-c2c(F)ccc(Br)c2Cl)c(=O)n(CC(F)F)c2ncccc12 [D23, isobutyric acid 3-(3-bromo-2-chloro-6-fluoro-phenyl)-1-(2,2-difluoro-ethyl)-2-oxo-1,2-dihydro-[1,8]naphthyridin-4-yl ester]		1	0	4	9	4	
Cc1cc(C)c(-c2c(O)c3cccnc3n(C)c2=O)c(C)c1 [D24]		0	0	1	1	0	
COc1cccc(-c2c(O)c3cccnc3[nH]c2=O)c1 [D25]	little or no damage						
CCn1c(=O)c(-c2c(F)ccc(Cl)c2Cl)c(O)c2c(OC)ccnc21 [D26]		4	4	6	6	6	
O=c1[nH]c2ncc(Br)cc2c(O)c1-c1c(F)cccc1F [D27]	little or no damage						
O=c1[nH]c2ncc(Br)cc2c(O)c1-c1c(F)cc(F)cc1F [D28]	little or no damage						
Cn1c(=O)c(-c2c(F)ccc(F)c2Cl)c(O)c2ccc(C(F)(F)F)nc21 [D29]		0	0	7	4	6	
Cn1c(=O)c(-c2c(F)ccc(F)c2Cl)c(OC(=O)C(C)(C)C)c2ccc(C(F)(F)F)nc21 [D30]		0	0	2	2	0	
CC(C)(C)C(=O)Oc1c(-c2c(F)ccc(F)c2Cl)c(=O)[nH]c2nc(C(F)(F)F)ccc12 [D31]		0	0	1	0	0	
O=c1c(-c2c(F)ccc(Br)c2Cl)c(O)c2cccnc2n1CC(F)F [D32]		1	1	6	7	4	
O=c1[nH]c2ncccc2c(O)c1-c1c(F)ccc(Br)c1Cl [D33]		0	0	7	3	1	
CCn1c(=O)c(-c2c(F)ccc(F)c2Cl)c(OC(=O)C(C)C)c2cncnc21 [E2]		2	0	2	4	5	
CC(C)C(=O)Oc1c(-c2c(F)ccc(F)c2Cl)c(=O)n(CC(F)F)c2ncncc12 [E3]		0	0	1	5	7	
CC(=O)Oc1c(-c2c(F)ccc(F)c2Cl)c(=O)[nH]c2nncnc12 [E5]	little or no damage						
O=c1[nH]c2nncnc2c(O)c1-c1c(F)cccc1Cl [E7]	little or no damage						
O=c1[nH]c2nnccc2c(O)c1-c1c(F)cccc1Cl [E8]	little or no damage						
CCOC(=O)Oc1c(-c2c(C)cc(C)cc2C)c(=O)[nH]c2nncnc12 [E9]		10	9	1	0	0	
O=c1[nH]c2ncncc2c(O)c1-c1c(F)cc(F)cc1F [E10]	little or no damage						
O=c1[nH]c2nncnc2c(O)c1-c1c(F)cc(F)cc1F [E11]	little or no damage						
Cc1cc(C)c(-c2c(O)c3ncnnc3[nH]c2=O)c(C)c1 [E12]		10	10	3	1	5	
O=c1[nH]c2cnncc2c(O)c1-c1c(F)cc(F)cc1F [E13]	little or no damage						
